What was measured:
[1] = system: DIGSA; assay: Post-emergence herbicidal effect, greenhouse pot test; assay type: in vivo, Digitaria sanguinalis; conditions: visual rating about 3 weeks after treatment
Procedure, shortened: (§1)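 Weeds sown in sandy loam, greenhouse-grown 2–3 weeks, then sprayed at one-leaf stage with WP or EC formulations in water plus 0.5% additive at 600 l/ha. Rates 20 to 320 g/ha. Visual rating after about 3 weeks versus untreated controls (100% = plants dead, 0% = like control).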

[2] = system: ZEAMX; assay: Post-emergence herbicidal effect and crop plant compatibility, greenhouse pot test; assay type: in vivo, Zea mays; conditions: one-leaf stage, rated visually after about 3 weeks vs untreated controls
Procedure, shortened: (§2)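 Sandy loam pots, greenhouse. One-leaf stage (2–3 wk after sowing) foliar spray; WP/EC in water + 0.5% additive, 600 l/ha; 20–320 g/ha. Visual score ~3 wk, 0–100% vs untreated.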

[3] = system: ABUTH; assay: Post-emergence herbicidal effect, greenhouse pot test; assay type: in vivo, Abutilon theophrasti; conditions: visual rating about 3 weeks after treatment
Procedure, shortened: as §1

[4] = system: ECHCG; assay: as above; assay type: in vivo, Echinochloa crus-galli; conditions: for Post-emergence effect against ECHCG: 20 g/ha, visual rating about 3 weeks after treatment
Procedure, shortened: as §1

[5] = system: AMARE; assay: as above; assay type: in vivo, Amaranthus retroflexus; conditions: visual rating about 3 weeks after treatment
Procedure, shortened: as §1

[6] = system: AVEFA; assay: as above; assay type: in vivo, Avena fatua; conditions: 320 g/ha, visual rating about 3 weeks after treatment
Procedure, shortened: as §1

[7] = system: ALOMY; assay: as above; assay type: in vivo, Alopecurus myosuroides; conditions: visual rating about 3 weeks after treatment
Procedure, shortened: as §1

[8] = system: PHBPU; assay: as above; assay type: in vivo, Ipomoea purpurea; conditions: for pest or weed control at 320 g/ha: Ipomoea purpurea, 504 h, read-out: Post-emergence effect against PHBPU in %
Procedure, shortened: as §1

[9] = system: VERPE; assay: as above; assay type: in vivo, Veronica persica
Procedure, shortened: as §1

[10] = system: SETVI; assay: as above; assay type: in vivo, Setaria viridis
Procedure, shortened: as §1

[11] = system: POLCO; assay: as above; assay type: in vivo, Fallopia convolvulus
Procedure, shortened: as §1

[12] = system: VIOTR; assay: as above; assay type: in vivo, Viola tricolor
Procedure, shortened: as §1

[13] = system: LOLRI; assay: as above; assay type: in vivo, Lolium rigidum; conditions: 320 g/ha
Procedure, shortened: as §1

[14] = system: MATIN; assay: as above; assay type: in vivo, Tripleurospermum inodorum
Procedure, shortened: as §1

[15] = system: ORYSA; assay: Post-emergence herbicidal effect and crop plant compatibility, greenhouse pot test; assay type: in vivo, Oryza sativa; conditions: for Post-emergence effect against ORYSA: 20 g/ha, visual rating about 3 weeks after treatment, crop plant; for Post-emergence effect at 320 g/ha against ORYSA in %: one-leaf stage, rated visually after about 3 weeks vs untreated controls
Excerpt: • ALOMY: Alopecurus myosuroides SETVI: Setaria viridis • AVEFA: Avena fatua POLCO: Fallopia convolvulus • AMARE: Amaranthus retroflexus ECHCG: Echinochloa crus-galli • LOLRJ: Lolium rigidum STEME: Stellaria media • VERPE: Veronica persica MATIN: Tripleurospermum inodorum • DIGSA: Digitaria sanguinalis ABUTH: Abutylon threophrasti • TRZAS: Triticum aestivum VIOTR: Viola tricolor • BRSNW: Brassica napus ZEAMX: Zea mays • PHBPU: Ipomoea purpurea GLXMA: Glycine max • ORYSA: Oryza sativa HORMU: Hordeum murinum
Seeds of monocotyledonous and dicotyledonous weeds and crop plants are placed in sandy loam in plastic or organic planting pots, covered with soil and cultivated in a greenhouse under controlled growth conditions. 2 to 3 weeks after sowing, the trial plants are treated at the one-leaf stage. The compounds of the invention, formulated in the form of wettable powders (WP) or as emulsion concentrates (EC), are then sprayed onto the green parts of the plants as aqueous suspension or emulsion with addition of 0.5% additive at a water application rate of 600 l/ha (converted). After the test plants have been kept in the greenhouse under optimum growth conditions for about 3 weeks, the activity of the preparations is rated visually in comparison to untreated controls. For example, 100% activity=the plants have died, 0% activity=like control plants.
Tables 20a to 38c below show the effects/crop compatibilities of selected compounds of the general formula (I) on various harmful plants at an application rate corresponding to 20 to 320 g/ha, which were obtained by the trial procedure specified above.

[16] = system: TRZAS; assay: as above; assay type: in vivo, Triticum aestivum; conditions: Triticum aestivum, 504 h, 20 g/ha, one-leaf stage, rated visually after about 3 weeks vs untreated controls, read-out: Post-emergence effect at 20 g/ha against TRZAS in %
Procedure, shortened: as §2

SMILES | Post-emergence effect against DIGSA ([1]; 320 g/ha) [%] | Post-emergence effect at 20 g/ha against ZEAMX in % ([2]; 20 g/ha) [%] | Post-emergence effect against ABUTH ([3]; 320 g/ha) [%] | Post-emergence effect against ECHCG [4] [%] | Post-emergence effect against ECHCG in % ([4]; 80 g/ha) [%] | Post-emergence effect against ECHCG in % ([4]; 320 g/ha) [%] | Post-emergence effect against AMARE ([5]; 320 g/ha) [%] | Post-emergence effect against AVEFA [6] [%] | Post-emergence effect against ALOMY ([7]; 320 g/ha) [%] | Post-emergence effect against PHBPU in % ([8]; 320 g/ha) [%] | Post-emergence effect against VERPE in % ([9]; 80 g/ha) [%] | Post-emergence effect against VERPE in % ([9]; 320 g/ha) [%] | Post-emergence effect against SETVI in % ([10]; 80 g/ha) [%] | Post-emergence effect against SETVI in % ([10]; 320 g/ha) [%] | Post-emergence effect against POLCO in % ([11]; 80 g/ha) [%] | Post-emergence effect against POLCO in % ([11]; 320 g/ha) [%] | Post-emergence effect against VIOTR in % ([12]; 320 g/ha) [%] | Post-emergence effect against LOLRI in % [13] [%] | Post-emergence effect against MATIN in % ([14]; 80 g/ha) [%] | Post-emergence effect against MATIN in % ([14]; 320 g/ha) [%] | other results
COC(=O)C(C)COC(=O)C(OC)Oc1nn(-c2ccccc2F)c(-c2ccc(F)nc2)c1Br (racemic) [Example I-10] | 90 | 20 | 90 | 80 | 90 | 100 | 100 | 80 | 90 | 90 | 90 | 90 | 80 | 90 | 80 | 80 | 90 | 90 | 80 | 90 | Post-emergence effect against ABUTH ([3]; 20 g/ha): 80%; Post-emergence effect against ABUTH ([3]; 80 g/ha): 90%; Post-emergence effect against AMARE ([5]; 20 g/ha): 80%; Post-emergence effect against AMARE ([5]; 80 g/ha): 80%; Post-emergence effect against PHBPU in % ([8]; 80 g/ha): 80%; Post-emergence effect against POLCO in % ([11]; 20 g/ha): 80%; Post-emergence effect against VIOTR in % ([12]; 80 g/ha): 80%; Post-emergence effect against MATIN in % ([14]; 20 g/ha): 80%; Post-emergence effect against ORYSA [15]: 10%
COC(=O)C(OC)Oc1nn(-c2ccc(F)nc2)c(-c2ccc(F)nc2)c1Br (centres unmarked) [Example I-15] | – | – | – | – | – | – | – | – | – | – | – | – | – | – | – | – | – | – | – | – | plant injury at 20 g/ha ([2]; Zea mays, 504 h, 20 g/ha, read-out: Post-emergence effect at 20 g/ha against ZEAMX in %): 0%; plant injury at 80 g/ha ([2]; Zea mays, 504 h, 80 g/ha, read-out: Post-emergence effect at 80 g/ha against ZEAMX in %): 10%; plant injury at 320 g/ha ([2]; Zea mays, 504 h, 320 g/ha, read-out: Post-emergence effect at 320 g/ha against ZEAMX in %): 20%; percent crop injury (phytotoxicity) to wheat, post-emergence at 20 g/ha [16]: 0%; pest or weed control at 320 g/ha ([8]; 320 g/ha): 80%; pest or weed control at 320 g/ha ([12]; Viola tricolor, 504 h, 320 g/ha, read-out: Post-emergence effect against VIOTR in %): 80%; Post-emergence effect at 320 g/ha against ORYSA in % [15]: 10%
COC(=O)C(OC)Oc1nn(-c2cnccn2)c(-c2ccc(F)nc2)c1Br (centres unmarked) [Example I-36] | – | – | – | – | – | – | – | – | – | – | – | – | – | – | – | – | – | – | – | – | percent crop injury (phytotoxicity) to wheat, post-emergence at 20 g/ha [16]: 20%; pest or weed control at 320 g/ha ([4]; Echinochloa crus-galli, 504 h, 320 g/ha, read-out: Post-emergence effect against ECHCG in %): 90%; pest or weed control at 320 g/ha ([5]; Amaranthus retroflexus, 504 h, 320 g/ha, read-out: Post-emergence effect against AMARE): 80%; pest or weed control at 320 g/ha ([8]; 320 g/ha): 80%; pest or weed control at 320 g/ha ([10]; Setaria viridis, 504 h, 320 g/ha, read-out: Post-emergence effect against SETVI in %): 80%; pest or weed control at 320 g/ha ([11]; Fallopia convolvulus, 504 h, 320 g/ha, read-out: Post-emergence effect against POLCO in %): 80%; pest or weed control at 320 g/ha ([13]; Lolium rigidum, 504 h, read-out: Post-emergence effect against LOLRI in %): 80%; Post-emergence effect at 320 g/ha against ORYSA in % [15]: 20%
COC(=O)CCOC(=O)C(OC)Oc1nn(-c2ccccc2F)c(-c2ccc(F)nc2)c1Br (single isomer, unassigned) [Example I-13] | 90 | 10 | 80 | 80 | 90 | 90 | 80 | 80 | 90 | 90 | 80 | 80 | 80 | 90 | 80 | 80 | 80 | 80 | 80 | 80 | Post-emergence effect against DIGSA ([1]; 80 g/ha): 90%; Post-emergence effect at 80 g/ha against ZEAMX in % ([2]; 80 g/ha): 20%; Post-emergence effect against ALOMY ([7]; 80 g/ha): 80%; Post-emergence effect against ORYSA [15]: 10%
